# According to US9221795B2, “Phosphatidylinositol 3-kinase inhibitors” (Gilead Sciences, Inc., priority 2013, dated 2015):
# Target: PI3Kδ (Homo sapiens (Human), UniProt O00329)
# Assay: Enzymatic activity of PI3K isoforms, TR-FRET assay (PI3Kδ)
# Type: biochemical
# Conditions: 2× Km ATP, geometric mean if more than one value
# Procedure: Enzymatic activity of the class I PI3K isoforms in the presence of the compounds of Table 1 and Compounds X, Y and Z was measured using a time-resolved fluorescence resonance energy transfer (TR-FRET) assay. The TR-FRET assay was used to monitor formation of the product 3,4,5-inositol triphosphate molecule (PIP3) as it competed with fluorescently labeled PIP3 for binding to the GRP-1 pleckstrin homology domain protein. An increase in […] product results in a decrease in TR-FRET signal as the labeled fluorophore is displaced from the GRP-1 protein binding site.
# Class I PI3K isoforms were expressed and purified as heterodimeric recombinant proteins. All assay reagents and buffers for the TR-FRET assay were purchased from Millipore. PI3K isoforms were assayed under initial rate conditions in the presence of 25 mM Hepes (pH 7.4), and 2× Km ATP (75-500 μM), 2 μM PIP2, 5% glycerol, 5 mM MgCl2, 50 mM NaCl, 0.05% (v/v) Chaps, 1 mM dithiothreitol, 1% (v/v) DMSO at the following concentrations for each isoforms: PI3Kα, PI3Kβ, and PI3Kδ between 25 and 50 pM, and PI3Kγ at 2 nM. After an assay reaction time of 30 minutes at 25° C., reactions were terminated with a final concentration of 10 mM EDTA, 10 nM labeled-PIP3, and 35 nM Europium labeled GRP-1 detector protein before reading TR-FRET on an Envision plate reader (Ex: 340 nm; Em: 615/665 nm; […] delay and 500 μs read window).
# Data were normalized based on positive ([…] wortmanin) and negative (DMSO) controls. α, β, δ, and γ IC50 values were calculated from the fit of the dose-response curves to a four-parameter equation. All IC50 values represent geometric mean values if more than one value was obtained. IC50 values were reported in units of nM.
# PI3Kδ, sequence (O00329 whole entry, canonical isoform): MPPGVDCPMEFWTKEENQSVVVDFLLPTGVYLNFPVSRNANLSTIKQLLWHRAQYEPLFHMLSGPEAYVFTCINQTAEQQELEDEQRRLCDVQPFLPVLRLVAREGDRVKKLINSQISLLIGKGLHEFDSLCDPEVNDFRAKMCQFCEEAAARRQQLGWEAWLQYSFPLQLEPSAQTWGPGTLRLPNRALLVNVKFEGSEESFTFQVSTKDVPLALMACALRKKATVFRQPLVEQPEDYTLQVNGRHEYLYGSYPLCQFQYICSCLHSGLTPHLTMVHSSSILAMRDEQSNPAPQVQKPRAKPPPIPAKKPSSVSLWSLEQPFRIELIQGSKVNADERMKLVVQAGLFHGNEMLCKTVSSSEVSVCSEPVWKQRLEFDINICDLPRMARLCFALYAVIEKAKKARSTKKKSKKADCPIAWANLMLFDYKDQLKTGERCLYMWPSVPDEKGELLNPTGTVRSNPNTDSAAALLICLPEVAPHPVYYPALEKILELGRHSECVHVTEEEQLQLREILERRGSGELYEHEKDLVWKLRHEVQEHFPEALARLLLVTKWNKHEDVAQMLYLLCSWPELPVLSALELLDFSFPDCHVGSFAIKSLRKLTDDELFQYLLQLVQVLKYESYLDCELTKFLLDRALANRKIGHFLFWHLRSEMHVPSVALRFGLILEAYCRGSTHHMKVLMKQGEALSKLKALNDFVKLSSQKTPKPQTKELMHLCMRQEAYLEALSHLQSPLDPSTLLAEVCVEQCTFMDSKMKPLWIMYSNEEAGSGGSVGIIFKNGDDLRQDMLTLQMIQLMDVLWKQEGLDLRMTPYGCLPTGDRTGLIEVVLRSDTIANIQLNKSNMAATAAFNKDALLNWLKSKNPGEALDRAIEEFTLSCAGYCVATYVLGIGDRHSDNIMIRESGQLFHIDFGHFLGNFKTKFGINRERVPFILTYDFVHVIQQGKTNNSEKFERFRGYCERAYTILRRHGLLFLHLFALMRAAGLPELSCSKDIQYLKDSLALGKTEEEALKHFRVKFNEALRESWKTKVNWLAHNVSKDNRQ
# PI3Kδ, sequence (P27986 whole entry partner, canonical isoform): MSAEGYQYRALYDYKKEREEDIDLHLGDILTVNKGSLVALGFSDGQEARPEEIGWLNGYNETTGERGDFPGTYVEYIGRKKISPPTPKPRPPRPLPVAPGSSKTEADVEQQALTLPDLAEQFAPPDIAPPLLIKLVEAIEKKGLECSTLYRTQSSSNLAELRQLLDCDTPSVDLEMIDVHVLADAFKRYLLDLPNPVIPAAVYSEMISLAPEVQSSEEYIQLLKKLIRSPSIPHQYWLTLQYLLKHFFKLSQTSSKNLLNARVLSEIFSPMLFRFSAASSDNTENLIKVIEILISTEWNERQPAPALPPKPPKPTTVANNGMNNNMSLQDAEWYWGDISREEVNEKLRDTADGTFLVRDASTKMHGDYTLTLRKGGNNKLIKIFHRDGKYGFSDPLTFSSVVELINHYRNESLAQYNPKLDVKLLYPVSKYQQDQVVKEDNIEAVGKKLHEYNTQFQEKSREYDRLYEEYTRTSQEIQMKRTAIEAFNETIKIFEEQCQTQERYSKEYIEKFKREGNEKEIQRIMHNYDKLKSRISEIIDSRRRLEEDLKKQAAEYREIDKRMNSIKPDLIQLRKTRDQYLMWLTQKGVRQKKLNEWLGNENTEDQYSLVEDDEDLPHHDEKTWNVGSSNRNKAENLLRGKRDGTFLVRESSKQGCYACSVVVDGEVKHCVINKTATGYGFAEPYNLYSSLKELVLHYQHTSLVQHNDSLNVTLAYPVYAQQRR
row,SMILES,IC50
1,"CC[C@H](Nc1nc(N)nc(N)c1C#N)c1nc2cccc(Cl)c2c(=O)n1-c1cncc(F)c1C (atropisomer, axis not shown) [Compound 71, (S)-2,4-diamino-6-((1-(5-chloro-3-(5-fluoro-4-methylpyridin-3-yl)-4-oxo-3,4-dihydroquinazolin-2-yl)propyl)amino)pyrimidine-5-carbonitrile]",0.049 µM
2,"C[C@H](Nc1nc(N)nc(N)c1Cl)c1nc2cccc(S(C)(=O)=O)c2c(=O)n1-c1cccnc1 [Compound 49, (S)-2-(1-((2,6-diamino-5-chloropyrimidin-4-yl)amino)ethyl)-5-(methylsulfonyl)-3-(pyridin-3-yl)quinazolin-4(3H)-one]",0.067 µM
3,"Cc1c(F)cncc1-n1c([C@H](C)Nc2nc(N)nc(N)c2C#N)nc2c(F)ccc(Cl)c2c1=O (atropisomer, axis not shown) [Compound 73, (S)-2,4-diamino-6-((1-(5-chloro-8-fluoro-3-(5-fluoro-4-methylpyridin-3-yl)-4-oxo-3,4-dihydroquinazolin-2-yl)ethyl)amino)pyrimidine-5-carbonitrile]",0.059 µM
4,"C[C@H](Nc1nc(N)nc(N)c1Cl)c1nc2cccc(Cl)c2c(=O)n1-c1cccnc1 [Compound 53, (S)-5-Chloro-2-(1-((2,6-diamino-5-chloropyrimidin-4-yl)amino)ethyl)-3-(pyridin-3-yl)quinazolin-4(3H)-on]",0.004 µM
5,"C[C@H](Nc1nc(N)nc(N)c1Cl)c1nc2cccc(C#N)c2c(=O)n1-c1cccnc1 [Compound 63, (S)-2-(1-((2,6-diamino-5-chloropyrimidin-4-yl)amino)ethyl)-4-oxo-3-(pyridin-3-yl)-3,4-dihydroquinazoline-5-carbonitrile]",0.095 µM
6,"Cc1c(F)cncc1-n1c([C@H](C)Nc2nc(N)nc(N)c2C#N)nc2cccc(F)c2c1=O (atropisomer, axis not shown) [Compound 67, (S)-2,4-diamino-6-((1-(5-fluoro-3-(5-fluoro-4-methylpyridin-3-yl)-4-oxo-3,4-dihydroquinazolin-2-yl)ethyl)amino)pyrimidine-5-carbonitrile]",0.12 µM
7,"C[C@@H](Nc1nc(N)nc(N)c1C#N)c1nc2c(F)ccc(Cl)c2c(=O)n1-c1cncc(F)c1 [Compound 113, (R)-2,4-Diamino-6-((1-(5-chloro-8-fluoro-3-(5-fluoropyridin-3-yl)-4-oxo-3,4-dihydroquinazolin-2-yl)ethyl)amino)pyrimidine-5-carbonitrile]",0.62 µM
8,"Cc1c(F)cncc1-n1c([C@@H](C)Nc2nc(N)nc(N)c2C#N)nc2cccc(Cl)c2c1=O (atropisomer, axis not shown) [Compound 114, (R)-2,4-diamino-6-((1-(5-chloro-3-(5-fluoro-4-methylpyridin-3-yl)-4-oxo-3,4-dihydroquinazolin-2-yl)ethyl)amino)pyrimidine-5-carbonitrile]",0.22 µM
9,"C[C@@H](Nc1nc(N)nc(N)c1C#N)c1nc2c(F)ccc(Cl)c2c(=O)n1-c1cccnc1 [Compound 110, (R)-2,4-Diamino-6-((1-(5-chloro-8-fluoro-4-oxo-3-(pyridin-3-yl)-3,4-dihydroquinazolin-2-yl)ethyl)amino)pyrimidine-5-carbonitrile]",0.061 µM
10,"C[C@H](Nc1nc(N)nc(N)c1C#N)c1nc2c(F)ccc(C#N)c2c(=O)n1-c1cncc(F)c1 [Compound 62, (S)-2-(1-((2,6-diamino-5-cyanopyrimidin-4-yl)amino)ethyl)-8-fluoro-3-(5-fluoropyridin-3-yl)-4-oxo-3,4-dihydroquinazoline-5-carbonitrile]",0.042 µM
11,"Cc1c(F)cncc1-n1c([C@H](C)Nc2nc(N)nc(N)c2C#N)nc2ccc(F)cc2c1=O (atropisomer, axis not shown) [Compound 75, (S)-2,4-diamino-6-((1-(6-fluoro-3-(5-fluoro-4-methylpyridin-3-yl)-4-oxo-3,4-dihydroquinazolin-2-yl)ethyl)amino)pyrimidine-5-carbonitrile]",0.51 µM

# More lines, in order of falling IC50, values ahead:
row,IC50,SMILES
1,0.042 µM,"Cc1c(F)cncc1-n1c([C@@H](Nc2nc(N)nc(N)c2C#N)C2CC2)nc2c(F)ccc(Cl)c2c1=O (atropisomer, axis not shown) [Compound 65, (S)-2,4-Diamino-6-(((5-chloro-8-fluoro-3-(5-fluoro-4-methylpyridin-3-yl)-4-oxo-3,4-dihydroquinazolin-2-yl)(cyclopropyl)methyl)amino)pyrimidine-5-carbonitrile]"
2,0.027 µM,"Cc1ccncc1-n1c([C@H](C)Nc2nc(N)nc(N)c2C#N)nc2cccc(C(F)(F)F)c2c1=O (atropisomer, axis not shown) [Compound 80, (S)-2,4-Diamino-6-((1-(3-(4-methylpyridin-3-yl)-4-oxo-5-(trifluoromethyl)-3,4-dihydroquinazolin-2-yl)ethyl)amino)pyrimidine-5-carbonitrile]"
3,0.014 µM,"Cc1c(F)cncc1-n1c([C@H](C)Nc2nc(N)nc(N)c2C#N)nc2ccc(F)cc2c1=O (atropisomer, axis not shown) [Compound 76, (S)-2,4-diamino-6-((1-(6-fluoro-3-(5-fluoro-4-methylpyridin-3-yl)-4-oxo-3,4-dihydroquinazolin-2-yl)ethyl)amino)pyrimidine-5-carbonitrile]"
4,0.01 µM,"C[C@H](Nc1nc(N)nc(N)c1C#N)c1nc2c(C#N)cc(F)cc2c(=O)n1-c1cccnc1 [Compound 54, (S)-2-(1-((2,6-Diamino-5-cyanopyrimidin-4-yl)amino)ethyl)-6-fluoro-4-oxo-3-(pyridin-3-yl)-3,4-dihydroquinazoline-8-carbonitrile]"
5,0.007 µM,"N#Cc1c(N)nc(N)nc1N[C@@H](c1nc2c(F)ccc(Cl)c2c(=O)n1-c1cccnc1)C1CC1 [Compound 112, (R)-2,4-Diamino-6-(((5-chloro-8-fluoro-4-oxo-3-(pyridin-3-yl)-3,4-dihydroquinazolin-2-yl)(cyclopropyl)methyl)amino)pyrimidine-5-carbonitrile]"
6,0.007 µM,"Cc1c(F)cncc1-n1c([C@H](C)Nc2nc(N)nc(N)c2C#N)nc2cccc(F)c2c1=O (atropisomer, axis not shown) [Compound 68, (S)-2,4-diamino-6-((1-(5-fluoro-3-(5-fluoro-4-methylpyridin-3-yl)-4-oxo-3,4-dihydroquinazolin-2-yl)ethyl)amino)pyrimidine-5-carbonitrile]"
7,0.007 µM,"C[C@H](Nc1nc(N)nc(N)c1Cl)c1nc2cccc(Cl)c2c(=O)n1-c1cncc(F)c1 [Compound 51, (S)-5-Chloro-2-(1-((2,6-diamino-5-chloropyrimidin-4-yl)amino)ethyl)-3-(5-fluoropyridin-3-yl)quinazolin-4(3h)-one]"
8,0.004 µM,"Cc1c(F)cncc1-n1c([C@@H](C)Nc2nc(N)nc(N)c2C#N)nc2cccc(Cl)c2c1=O (atropisomer, axis not shown) [Compound 115, (R)-2,4-diamino-6-((1-(5-chloro-3-(5-fluoro-4-methylpyridin-3-yl)-4-oxo-3,4-dihydroquinazolin-2-yl)ethyl)amino)pyrimidine-5-carbonitrile]"
9,0.003 µM,"Cc1c(F)cncc1-n1c([C@@H](Nc2nc(N)nc(N)c2C#N)C2CC2)nc2c(F)ccc(Cl)c2c1=O (atropisomer, axis not shown) [Compound 66, (S)-2,4-Diamino-6-(((5-chloro-8-fluoro-3-(5-fluoro-4-methylpyridin-3-yl)-4-oxo-3,4-dihydroquinazolin-2-yl)(cyclopropyl)methyl)amino)pyrimidine-5-carbonitrile]"
10,0.001 µM,"C[C@H](Nc1nc(N)nc(N)c1C#N)c1nc2c(F)ccc(Br)c2c(=O)n1-c1cncc(F)c1 [Compound 60, (S)-2,4-diamino-6-((1-(5-bromo-8-fluoro-3-(5-fluoropyridin-3-yl)-4-oxo-3,4-dihydroquinazolin-2-yl)ethyl)amino)pyrimidine-5-carbonitrile]"
11,0.001 µM,"Cc1c(F)cncc1-n1c([C@H](C)Nc2nc(N)nc(N)c2C#N)nc2c(F)ccc(Cl)c2c1=O (atropisomer, axis not shown) [Compound 74, (S)-2,4-diamino-6-((1-(5-chloro-8-fluoro-3-(5-fluoro-4-methylpyridin-3-yl)-4-oxo-3,4-dihydroquinazolin-2-yl)ethyl)amino)pyrimidine-5-carbonitrile]"
12,0.001 µM,"CC[C@H](Nc1nc(N)nc(N)c1C#N)c1nc2c(F)ccc(Br)c2c(=O)n1-c1cccnc1 [Compound 61, (S)-2,4-diamino-6-((1-(5-bromo-8-fluoro-4-oxo-3-(pyridin-3-yl)-3,4-dihydroquinazolin-2-yl)propyl)amino)pyrimidine-5-carbonitrile]"
13,0.0008 µM,"Cc1cncc(-n2c([C@H](C)Nc3nc(N)nc(N)c3C#N)nc3cccc(Cl)c3c2=O)c1C (atropisomer, axis not shown) [Compound 78, (S)-2,4-diamino-6-((1-(5-chloro-3-(4,5-dimethylpyridin-3-yl)-4-oxo-3,4-dihydroquinazolin-2-yl)ethyl)amino)pyrimidine-5-carbonitrile]"
